From article PMC9446893, “Zinc(II) Complex with Pyrazolone-Based Hydrazones is Strongly Effective against Trypanosoma brucei Which Causes African Sleeping Sickness” (Inorganic Chemistry, 2022) come the findings set out here.

Some results are limits rather than exact numbers.

Experiment [1] relates to T. brucei TC221. The experiment can be described thus: Viability of T. brucei TC221 bloodstream forms (resazurin fluorescence). It counts as cell-based, Trypanosoma brucei. The protocol:
(§1) The biological assays have been conducted in collaboration with Prof. Anders Hofer, Department of Medical Biochemistry and Biophysics, Umeå University, Umeå, Sweden. T. bruceiTC221 bloodstream forms and mouse embryonic fibroblast Balb/3T3 cells (ATCC no CCL-163) were cultivated in a vented plastic flask at 37 °C with 5% CO2. For T. brucei, the growth medium was Hirumi’s modified Iscoves medium (HMI)-9 supplemented with 10% (v/v) fetal bovine serum (Thermo Fischer Scientific Gibco, Waltham, MA, USA), whereas the Balb/3T3 cells were grown in Dulbecco’s modified Eagle’s medium (Sigma-Aldrich) supplemented with 10% (v/v) heat-inactivated fetal bovine serum, glutamine (0.584 g/L), and 10 mL/L 100 × penicillin–streptomycin (Gibco).[48]−[50] […] The plates were incubated for 48 h in the 5%CO2 incubator; then, 20 μL of 0.5 mM resazurine (Sigma-Aldrich) was added to each well, and the plates were incubated for an additional 24 h before the fluorescence was measured with the Synergy H4 microplate reader (excitation wavelength 530 or 540 nm and emission wavelength 590 nm).
(§2) The half-maximal efficacious concentration (EC50) values were calculated on the log inhibitor versus the response curves by non-linear regression using the GraphPad prism 5.2 software (GraphPad Software, Inc., La Jolla, CA, USA). […]
A general note: Resazurin is reduced to fluorescent resorufin, in cell work by metabolically active cells.

Experiment [2] concerns Balb/3T3 cells. The experiment can be described thus: Cytotoxicity on Balb/3T3 mammalian reference cells (resazurin fluorescence). As to conditions: mouse embryonic fibroblasts, 48 h + 24 h with resazurin. The format is cell-based. The method, then: as §1, §2

As for `Cc1ccc(C(=O)Nc2ccc(S(=O)(=O)O)c3cc(S(=O)(=O)O)cc(S(=O)(=O)O)c23)cc1NC(=O)c1cccc(NC(=O)Nc2cccc(C(=O)Nc3cc(C(=O)Nc4ccc(S(=O)(=O)O)c5cc(S(=O)(=O)O)cc(S(=O)(=O)O)c45)ccc3C)c2)c1` [suramin, reference compound], the “SI (selectivity index)” value in experiment [1] (T. brucei versus Balb/3T3 reference cells) is >100. Also, the EC50 worked out at 0.023 ± 0.0008 µM in experiment [1] (Trypanosoma brucei, bloodstream forms, 48 h + 24 h with resazurin) and 43.9 ± 1.44 µM in experiment [2].

Usually EC50 stands for the concentration that produces a half-maximal response.
